Laboratory results: patent US20240148821A1, “PHARMACEUTICAL USE OF CYCLIC PEPTIDE COMPOUND” (CHUGAI SEIYAKU KABUSHIKI KAISHA, priority 2021, published 2024)
Numbered stars: 1 amine (or outer) side, 2 acyl side, 3 side chain; on linkers, the order of the positions; unused ones are H or OH. Bridge positions count the residues as written; N and C are the ends. Square brackets hold non-standard residues; d marks the D form. Peptide text beside a SMILES is read from it. * marks the point of attachment. hPhe(3,5-F2-4-CF3) = N[C@@H](CCc1cc(F)c(C(F)(F)F)c(F)c1)C(=O)O; hPhe(3-Cl-4-CF3) = N[C@@H](CCc1ccc(C(F)(F)F)c(Cl)c1)C(=O)O; NMePhe(4-CF3) = CN[C@@H](Cc1ccc(C(F)(F)F)cc1)C(=O)O; NEtPhe(4-Me) = CCN[C@@H](Cc1ccc(C)cc1)C(=O)O; NMedβ3hAla = C[C@H](CC(=O)[*:2])N(C)[*:1]; NMeGly(cPent) = CN[C@H](C(=O)O)C1CCCC1; Pro(4,4-F2) = O=C(O)[C@@H]1CC(F)(F)CN1; NMeCha = CN[C@@H](CC1CCCCC1)C(=O)O; Ala(cPr) = N[C@@H](CC1CC1)C(=O)O; Hyp = O=C(O)[C@@H]1C[C@@H](O)CN1; NMeChg = CN[C@H](C(=O)O)C1CCCCC1; NMeT = CN[C@H](C(=O)O)[C@@H](C)O; Gly(cPr) = N[C@H](C(=O)O)C1CC1; NMeD = CN[C@@H](CC(=O)O)C(=O)O; NMeL = CN[C@@H](CC(C)C)C(=O)O; NMeV = CN[C@H](C(=O)O)C(C)C; d(β3hA) = C[C@@H](N)CC(=O)O; NMeS = CN[C@@H](CO)C(=O)O; NMeA = CN[C@@H](C)C(=O)O; Piperidide = C1CCN(*)CC1; Ac5c = NC1(C(=O)O)CCCC1; Aze = O=C(O)[C@@H]1CCN1; Ac4c = NC1(C(=O)O)CCC1; Isopentyl = CC(C)CC*; Sar = CNCC(=O)O

Each compound was assayed against protein-protein interaction between Kras and SOS1 (biotin-tagged human Kras loaded with GDP, His-tagged human SOS1) (Homo sapiens (Human), UniProt P01116, G12D) (assay: Protein-protein interaction inhibition between Kras and SOS1 (KrasG12D-SOS PPI) using AlphaScreen). Conditions: AlphaScreen; biotin-tagged human Kras loaded with GDP, His-tagged human SOS1; read-out: KRAS G12D-SOS PPI IC50.
Format: biochemical

Row | SMILES | IC50 [nM]
1 | CC[C@H](C)[C@@H]1NC(=O)[C@H](CC(C)C)N(C)C(=O)C[C@@H](C(=O)N2CCCCC2)N(C)C(=O)[C@H](C(C)C)N(C)C(=O)C2(CCCC2)NC(=O)[C@@H]2CCCN2C(=O)[C@H](CCc2ccc(C(F)(F)F)c(Cl)c2)NC(=O)CN(C)C(=O)[C@H](COCCC(C)C)N(C)C(=O)[C@@H]2CCN2C(=O)[C@H](C)N(C)C1=O [Compound 470] ([NMeL]I[NMeA][Aze][NMeS](Isopentyl)[Sar][hPhe(3-Cl-4-CF3)]P[Ac5c][NMeV][NMeD]-Piperidide; lactam N-11) | 2.2
2 | CC(C)C[C@H]1C(=O)N[C@@H](CC2CC2)C(=O)N(C)[C@@H](C)C(=O)N2CC[C@H]2C(=O)N(C)[C@@H](CC2CCCCC2)C(=O)N(C)CC(=O)N[C@@H](CCc2ccc(C(F)(F)F)c(Cl)c2)C(=O)N2CCC[C@H]2C(=O)NC2(CCCC2)C(=O)N(C)[C@@H](C(C)C)C(=O)N[C@H](C)CC(=O)N1C [Compound 474] (cyclo([Ac5c][NMeV][d(β3hA)][NMeL][Ala(cPr)][NMeA][Aze][NMeCha][Sar][hPhe(3-Cl-4-CF3)]P)) | 280
3 | CC[C@H](C)[C@@H]1NC(=O)[C@H](CC(C)C)N(C)C(=O)C[C@@H](C)N(C)C(=O)[C@H](C2CCCCC2)N(C)C(=O)C2(CCC2)NC(=O)[C@@H]2CC(F)(F)CN2C(=O)[C@H](CCc2cc(F)c(C(F)(F)F)c(F)c2)NC(=O)CN(C)C(=O)[C@H](Cc2ccc(C)cc2)N(CC)C(=O)[C@@H]2CCN2C(=O)[C@H](C)N(C)C1=O [Compound 475] (cyclo([Ac4c][NMeChg][NMedβ3hAla][NMeL]I[NMeA][Aze][NEtPhe(4-Me)][Sar][hPhe(3,5-F2-4-CF3)][Pro(4,4-F2)])) | 51
4 | CC[C@H](C)[C@@H]1NC(=O)[C@H](CC(C)C)N(C)C(=O)C[C@@H](C(=O)N2CCCCC2)N(C)C(=O)[C@H](C(C)C)N(C)C(=O)C2(CCCC2)NC(=O)[C@@H]2CCCN2C(=O)[C@H](CCc2ccc(C(F)(F)F)c(Cl)c2)NC(=O)CN(C)C(=O)[C@H](CC2CCCCC2)N(C)C(=O)[C@@H]2CCN2C(=O)[C@H](C)N(C)C1=O [Compound 476] ([NMeL]I[NMeA][Aze][NMeCha][Sar][hPhe(3-Cl-4-CF3)]P[Ac5c][NMeV][NMeD]-Piperidide; lactam N-11) | 4.1
5 | CCO[C@@H]1C[C@H]2C(=O)NC3(CCCC3)C(=O)N(C)[C@@H](C3CCCCC3)C(=O)N(C)[C@H](C)CC(=O)N(C)[C@@H](CC(C)C)C(=O)N[C@@H]([C@@H](C)CC)C(=O)N(C)[C@@H](C)C(=O)N3CC[C@H]3C(=O)N(C)[C@@H](Cc3ccc(C(F)(F)F)cc3)C(=O)N(C)CC(=O)N[C@@H](CCc3cc(F)c(C(F)(F)F)c(F)c3)C(=O)N2C1 [Compound 486] (cyclo([Ac5c][NMeChg][NMedβ3hAla][NMeL]I[NMeA][Aze][NMePhe(4-CF3)][Sar][hPhe(3,5-F2-4-CF3)][Hyp](Et))) | 4.8
6 | CC[C@H](C)[C@@H]1NC(=O)[C@H](CC(C)C)N(C)C(=O)C[C@@H](C)NC(=O)[C@H](C(C)C)N(C)C(=O)C2(CCCC2)NC(=O)[C@@H]2CCCN2C(=O)[C@H](CCc2ccc(C(F)(F)F)c(Cl)c2)NC(=O)CN(C)C(=O)[C@H](CC2CCCCC2)N(C)C(=O)[C@@H]2CCN2C(=O)[C@H](C)N(C)C1=O [Compound 488, (5S,8S,11S,15R,18S,23aS,29S,35S,37aS)-8-((S)-sec-butyl)-29-(3-chloro-4-(trifluoromethyl)phenethyl)-35-(cyclohexylmethyl)-11-isobutyl-18-isopropyl-5,6,12,15,19,33,36-heptamethyldocosahydro-2H,4H-spiro[azeto[2,1-u]pyrrolo[2,1-i][1,4,7,10,13,16,19,22,25,28,31]undecaazacyclotetratriacontine-21,1′-cyclopentan]-4,7,10,13,17,20,23,28,31,34,37(14H,22H)-undecaone] (cyclo([Ac5c][NMeV][d(β3hA)][NMeL]I[NMeA][Aze][NMeCha][Sar][hPhe(3-Cl-4-CF3)]P)) | 29
7 | CC(C)C[C@H]1C(=O)N[C@@H](C2CC2)C(=O)N(C)[C@@H](C)C(=O)N2CC[C@H]2C(=O)N(C)[C@@H](CC2CCCCC2)C(=O)N(C)CC(=O)N[C@@H](CCc2ccc(C(F)(F)F)c(Cl)c2)C(=O)N2CCC[C@H]2C(=O)NC2(CCCC2)C(=O)N(C)[C@@H](C(C)C)C(=O)N[C@H](C)CC(=O)N1C [Compound 490] (cyclo([Ac5c][NMeV][d(β3hA)][NMeL][Gly(cPr)][NMeA][Aze][NMeCha][Sar][hPhe(3-Cl-4-CF3)]P)) | 240
8 | CC[C@H](C)[C@@H]1NC(=O)[C@H](CC(C)C)N(C)C(=O)C[C@@H](C)N(C)C(=O)[C@H](C2CCCC2)N(C)C(=O)C2(CCCC2)NC(=O)[C@@H]2CCCN2C(=O)[C@H](CCc2ccc(C(F)(F)F)c(Cl)c2)NC(=O)CN(C)C(=O)[C@H](Cc2ccc(C)cc2)N(CC)C(=O)[C@@H]2CCN2C(=O)[C@H](C)N(C)C1=O [Compound 494] (cyclo([Ac5c][NMeGly(cPent)][NMedβ3hAla][NMeL]I[NMeA][Aze][NEtPhe(4-Me)][Sar][hPhe(3-Cl-4-CF3)]P)) | 8.6
9 | CC[C@H](C)[C@@H]1NC(=O)[C@H](CC(C)C)N(C)C(=O)C[C@@H](C(=O)N2CCCCC2)N(C)C(=O)[C@H](C(C)C)N(C)C(=O)C2(CCCC2)NC(=O)[C@@H]2CCCN2C(=O)[C@H](CCc2ccc(C(F)(F)F)c(Cl)c2)NC(=O)CN(C)C(=O)[C@H](CC2CCCCC2)N(C)C(=O)[C@@H]2CCN2C(=O)[C@H]([C@@H](C)O)N(C)C1=O [Compound 496] ([NMeL]I[NMeT][Aze][NMeCha][Sar][hPhe(3-Cl-4-CF3)]P[Ac5c][NMeV][NMeD]-Piperidide; lactam N-11) | 10
